Assay results: US20260041679A1, “METHOD OF TREATING HYPERTENSION WITH THE ALDOSTERONE SYNTHASE INHIBITOR BAXDROSTAT” (CINCOR PHARMA, INC., priority 2022, published 2026)

What was measured:
[1] = Single ascending dose study, safety and tolerability (Example 1); assay type: in vivo; conditions: single dose 1 to 360 mg
Method: Eighty-eight healthy male volunteers completed the first-in-human study of baxdrostat. In part 1 of the trial, subjects received a single oral dose of baxdrostat ranging from 1 to 360 mg in order to evaluate safety, tolerability, PK, and pharmacodynamics (PD). Part 2 evaluated the PK of a single 3 mg intravenous dose of baxdrostat.

[2] = Safety in hepatic function study (Example 5); assay type: in vivo, human
Method: Subjects with moderate hepatic impairment (Child-Pugh Category B, n=10) and healthy controls (n=10) were each given a single 10 mg oral dose of baxdrostat. Subjects were matched by age, sex, body mass index, race, and smoking status. Serial blood and urine samples were collected to determine plasma and urine concentrations of baxdrostat for 7 days postdose. Safety was assessed based on adverse events, clinical laboratory evaluations, vital signs, electrocardiogram and physical examinations.

[3] = Study 121: serum electrolytes and eGFR; assay type: in vivo, human
Source text: Aldosterone plays a direct role in the pathogenesis of hypertension via increasing renal absorption of sodium and water while promoting excretion of potassium. There is the potential therefore for an aldosterone synthesis inhibitor to cause the electrolyte abnormalities of hyperkalemia or hyponatremia. Moreover, the decrease in SBP expected with aldosterone inhibitors will reduce blood flow through the afferent arterioles in the kidney, leading to an apparent decline in determination of eGFR. These potential perturbations in kidney physiology were closely monitored throughout the study via the measurement of serum electrolytes and eGFR.

With `CCC(=O)N[C@@H]1CCCc2c(-c3ccc4c(c3)CCC(=O)N4C)cncc21` [baxdrostat, (R)—N-(4-(1-methyl-2-oxo-1,2,3,4-tetrahydroquinolin-6-yl)-5,6,7,8-tetrahydroisoquinolin-8-yl) propionamide] the “deaths, serious adverse events, dose-limiting adverse events” value [1] was “no deaths, serious adverse events, or dose-limiting adverse events”, the side effects [1] was “mild and included headache, nasopharyngitis, and diarrhea” and the “clinical laboratory evaluations, vital signs, electrocardiograms, physical examinations” value ([2]; both groups) was “No clinically significant changes”. For the same compound, the “TEAE deemed related to baxdrostat” value ([2]; normal hepatic function group) was “One TEAE of headache with moderate severity”, the “deaths, serious TEAEs, study discontinuations” value ([2]; single 10 mg, both hepatic function groups) was “no deaths, serious treatment-emergent adverse events (TEAE), or study discontinuations” and the “AEs of renal impairment” value ([3]; 0.5 mg) was “no cases”. For the same compound, the “change in serum potassium from baseline to end of treatment, mean (standard deviation)” value ([3]; 0.5 mg) was 0.19 (0.474) mEq/L, the “change in serum sodium from baseline to end of treatment, mean (SD)” value ([3]; 0.5 mg) was −1.2 (2.73) mEq/L and the “patients with mild hyponatremia (serum sodium <130 mEq/L)” value (“patients with mild hyponatremia” for short) ([3]; 0.5 mg) was 1 patients. The “AEs of renal impairment” value ([3]; 1 mg) was 3, the “change in serum potassium from baseline to end of treatment, mean (standard deviation)” value ([3]; 1 mg) was 0.36 (0.481) mEq/L and the “change in serum sodium from baseline to end of treatment, mean (SD)” value ([3]; 1 mg) was −1.1 (3.03) mEq/L. For the same compound, the “patients with mild hyponatremia” value ([3]; 1 mg) was 7 patients, the “AEs of renal impairment” value ([3]; 2 mg) was 1 and the “change in serum potassium from baseline to end of treatment, mean” value ([3]; 2 mg) was 0.29 mEq/L. For the same compound, the “change in serum sodium from baseline to end of treatment, mean” value ([3]; 2 mg) was −2.4 mEq/L, the “patients with mild hyponatremia” value ([3]; 2 mg) was 1 patients and the “mean eGFR” value ([3]; 0.5, 1, 2 mg QD) was “mild dose-dependent decrease in mean eGFR”. The “overall rate of moderate hyperkalemia (potassium>6.0 mEq/L)” value ([3]; 2 highest dose groups) was 2.2%, the “patients with moderate hyperkalemia (potassium>6.0 mEq/L)” value ([3]; 2 highest dose groups) was 3 patients and the “moderate hypokalemia (potassium 3.0 to 2.5 mEq/L)” value ([3]; any baxdrostat dose groups) was “no cases”. The “relationship between dose and serum calcium, serum phosphorus” value ([3]; in vivo) was “no apparent relationship”.
